Data published in patent US6531604B2, “Benzothiepine derivatives, their production and use” (Takeda Chemical Industries, Ltd., priority 1998, dated 2003).

Test system: interstitial cells prepared from the femur bone marrow of a normal rat
Experiment: Osteogenesis promoting effect: alkaline phosphatase activity in cultured rat bone marrow interstitial cells
Assay type: cell-based
Details: test compound 10^−5 M, added from 2nd day of culture, cultured additional 5 days; mean ± S.E. (n = 4); control 0.150 ± 0.009; ** p < 0.01 vs control
Procedure: Osteogenesis promoting effect:
Using the interstitial cells prepared from the femur bone marrow of a normal rat, an alkaline phosphatase activity was measured as an index of osteogenesis. Briefly, according to the method of Maniatopoulos et al. [Cell Tissue Research, volume 254, P.317 (1988)], the interstitial cells were prepared from the femur bone of a Sprague-Dawley male rat, 7 weeks of age, and cultured in an α-MEM (minimum essential medium) solution containing dexamethasone (10^−7M) and β-glycerophosphoric acid (10^−2M) in order to generate calcified bony tissue. One week later, the confluent primary cells were treated with 0.25% trypsin-0.2% EDTA solution, recovered, and subcultured on a culture plate at a cell density of […], (culture day 0). From the 2nd day of the culture, a test compound (10^−5 M) was added to the above culture solution, and cultured for additional 5 days. The cells were washed with a phosphate buffer, and after addition of 0.2% Nonidet P-40, they were homogenized and centrifuged at 3,000 rpm for 10 minutes. The supernatant was measured for an alkaline phosphatase activity according to the method of Lowry et al. [Journal of Biological Chemistry, volume 207, P.19 (1954)]. […] Statistical analysis was performed by means of the Student's t-test.

Row | Compound | Alkaline phosphatase activity (A405)
1 | C[C@@H]1S[C@@H](C(=O)Nc2ccc(CC3SC(=O)NC3=O)cc2)Cc2cc3c(cc2C1=O)OCO3 (stereo partly drawn) [Example no. 1, (2R,4S)-N-[4-(2,4-Dioxothiazolidin-5-yl-methyl)phenyl]-1,2,4,5-tetrahydro-7,8-methylenedioxy-4-methyl-5-oxo-3-benzothiepine-2-carboxamide] | 0.489 ± 0.050** A405
2 | C[C@@H]1S[C@@H](C(=O)Nc2ccc(CC3OC(=O)NC3=O)cc2)Cc2cc3c(cc2C1=O)OCO3 (stereo partly drawn) [Example no. 10, (2R,4S)-N-[4-(2,4-Dioxo-oxazolidin-5-yl-methyl)phenyl]-1,2,4,5-tetrahydro-7,8-methylenedioxy-4-methyl-5-oxo-3-benzothiepine-2-carboxamide] | 0.535 ± 0.069** A405
3 | C[C@@H]1S[C@@H](C(=O)Nc2ccc(Cn3oc(=O)[nH]c3=O)cc2)Cc2cc3c(cc2C1=O)OCO3 [Example no. 11, (2R,4S)-N-[4-(3,5-Dioxo-1,2,4-oxadiazolidin-2-ylmethyl)phenyl]-1,2,4,5-tetrahydro-7,8-methylenedioxy-4-methyl-5-oxo-3-benzothiepine-2-carboxamide] | 0.399 ± 0.069** A405
4 | C[C@@H]1S[C@@H](C(=O)Nc2ccc(CN3CCOCC3)cc2)Cc2cc3c(cc2C1=O)OCO3 [Example no. 4, (2R,4S)-N-[4-(4-Morpholinylmethyl)phenyl]-1,2,4,5-tetrahydro-7,8-methylenedioxy-4-methyl-5-oxo-3-benzothiepine-2-carboxamide] | 0.394 ± 0.036** A405
